{"source": "patent US20210000814A1", "about": "“RIMEGEPANT FOR CGRP RELATED DISORDERS” (Biohaven Pharmaceutical Holding Company Ltd., priority 2018, published 2021)", "tested_on": "subjects with Acute Migraines", "assay": "BHV3000-303 Phase 3 trial, rimegepant ODT, acute treatment of migraine: efficacy", "assay_type": "in vivo, human", "settings": "Study 303; single dose", "procedure": "Clinical Trial—BHV3000-303: Phase 3: Double-Blind, Randomized, Placebo-Controlled, Safety and Efficacy Trial of BHV-3000 (Rimegepant) Orally Discintegrating Tablet (ODT) for the Acute Treatment of Migraine (ClinicalTrials.gov Identifier: NCT03461757) • A phase 3 clinical study was conducted with 1812 participants, as follows. The purpose of this study is to compare the efficacy of BHV-3000 (rimegepant ODT) versus placebo in subjects with Acute Migraines. […] Pain freedom of rimegepant compared with placebo in the acute treatment of migraine will be measured using the number of evaluable subjects that report no pain at 2 hours post-dose. [Time Frame: Two hours post dose] will be measured on a 4 point Likert scale (0=none, 1=mild, 2=moderate, 3=severe) 2. Freedom from the most bothersome symptom (MBS) of rimegepant compared with placebo will be measured using the number of evaluable subjects that report the absence of their MBS at 2 hours post-dose. […] The MBS (nausea, phonophobia or photophobia) will measured using a binary scale (0=absent, 1=present). […] To measure rimegepant compared to placebo on the probability of requiring rescue medication will be assessed using the number of subjects that take rescue medication within […] administration of study medication (BHV3000 or placebo). […]", "data": [{"smiles": "N[C@@H]1c2cccnc2[C@H](OC(=O)N2CCC(n3c(=O)[nH]c4ncccc43)CC2)CC[C@H]1c1cccc(F)c1F", "note": "[Rimegepant, [(55,65,9R)-5-amino-6-(2,3-difluorophenyl)-6,7,8,9-tetrahydro-5H-cyclohepta[b]pyridin-9-yl]4-(2-oxo-3H-imidazo[4,5-b]pyridin-1-yl)piperidine-1-carboxylate]", "values": [{"measurement": "clinical benefit through 48 hours on pain relief, pain freedom, MBS, functional disability versus placebo", "value": "Lasting clinical benefit"}]}]}
